We go through 32 compounds from US7264956B2, “Compounds and methods for inhibiting axillary malodour” (Givaudan SA, priority 2001, dated 2007).

Experiment [1] concerns the target T1, isolated enzyme (extracts of A×20) (Corynebacterium striatum, UniProt Q8GGD4).
T1 construct: an enzyme may be isolated from cellular extracts obtained from wild-type bacterial strains; endogenous in cells; host or cells: Corynebacterium striatum Ax20 (DSM 14267), mechanically disrupted; crude extract or chromatographically purified enzyme
As to the kind of experiment: Low throughput screening for inhibitors, isolated enzyme (released lauric acid by GC). Type of experiment: biochemical. The settings on record: substrate Nα-lauroyl-L-glutamine, 2 h. As to the method: (§1) Extracts of A×20 were prepared by mechanical disruption as described in Example 3. The extract (0.5 ml corresponding to 2 ml initial cell culture) was added to 3.5 ml of Buffer A and amended with 40 μl of substrate (Nα-lauroyl-L-glutamine, 5% stock solution in methanol). Parallel samples were additionally amended with potential inhibitory compounds to give a final concentration of 0.5 and 5 mM. The samples were incubated for 2 h and then extracted with MTBE and HCI and analysed for released lauric acid using capillary GC. By comparing the samples containing potential inhibitory compounds with control samples with enzyme and substrate only, the inhibition (%) was calculated. The same assay was also made either with purified enzyme from the wild-type strain (see example 3) or with extracts from E.coli Top 10/pBADgIII AMRE induced with arabinose (see example 6). Furthermore, the same assay was made using stationary phase living cells of A×20 instead of an isolated enzyme preparation. In this case successful uptake of the inhibitors into the cells and inhibition are measured simultaneously.

Experiment [2] addresses T2, enzyme activity in living cells of A×20 (Corynebacterium striatum, UniProt Q8GGD4).
T2 construct: stationary phase living cells of A×20; endogenous in cells; host or cells: Corynebacterium striatum Ax20, stationary-phase living cells
As to the kind of experiment: Low throughput screening for inhibitors, stationary phase living cells of A×20. Type of experiment: cell-based. The settings on record: 5 mM; substrate Nα-lauroyl-L-glutamine, 2 h. As to the method:
as §1

For experiment [3], the target named is T3, purified enzyme obtained from E.coli Top 10/pBADgIII AMRE (Corynebacterium striatum, UniProt Q8GGD4).
T3 construct: made in house; host or cells: E. coli TOP10 (Invitrogen), vector pBADgIIIA, arabinose-induced
T3 sequence (Q8GGD4 2-400): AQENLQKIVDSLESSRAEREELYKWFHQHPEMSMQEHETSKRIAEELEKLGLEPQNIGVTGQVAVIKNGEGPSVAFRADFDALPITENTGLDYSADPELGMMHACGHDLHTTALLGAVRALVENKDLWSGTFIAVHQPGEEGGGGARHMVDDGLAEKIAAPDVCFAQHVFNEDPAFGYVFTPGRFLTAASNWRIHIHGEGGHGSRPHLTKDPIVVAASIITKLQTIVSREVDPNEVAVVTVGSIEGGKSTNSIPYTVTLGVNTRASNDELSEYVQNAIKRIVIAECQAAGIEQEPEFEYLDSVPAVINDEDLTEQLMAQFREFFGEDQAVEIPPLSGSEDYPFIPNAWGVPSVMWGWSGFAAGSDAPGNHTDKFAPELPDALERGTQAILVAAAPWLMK
As to the kind of experiment: High throughput screening for inhibitors (fluorescamine assay of released L-glutamine). It is filed as biochemical. The settings on record: substrate Nα-lauroyl-L-glutamine 0.05 mM; Ki calculated from IC50. An excerpt:
Compounds, which inhibit an enzyme of the present invention reduce the activity of the enzyme and may lead to a significant reduction of the release of malodour acids from odourless fresh sweat. […] The activity of the compounds as inhibitors may be measured in terms of either their IC50 values or their Ki values, both of which measures are well known to the person skilled in the art. As is well known, the IC50 value provides the concentration of an inhibitor needed to reduce enzyme velocity by half at a given substrate concentration. This value is dependent on the affinity of the substrate for the enzyme which is reflected in the value Km of the substrate. In this way, the Ki value may be determined for a given substrate and a given substrate concentration by measuring IC50 and then calculating according to the following formula
Potential inhibitory compounds were dissolved in Buffer A and aliquots of the solutions of different inhibitors (10 μl) were distributed to individual wells of a white microtiter plate. Purified enzyme obtained from the strain E.coli Top 10/pBADgIII AMRE was diluted in Buffer A (200 pg/ml final concentration) and added to the inhibitory compounds. After 10 min preincubation, the substrate (Nα-lauroyl-L-glutamine) was added to the individual wells to a final concentration of 0.05 mM. After 15 min of incubation, the amino-group of the released L-glutamine was derivatised by adding to each well of the microtiter plate 50 μl of a fluorescamine stock solution (2.5 mM in acetonitrile; fluorescamine obtained from Fluka, Buchs, Switzerland). After 5 min the fluorescence in the wells of the microtiter plates was measured with an excitation wavelength of 360 nm and an emission wavelength of 460 nm. The fluorescence of control wells with enzyme, substrate and DMSO only was then compared to the fluorescence in wells containing potential inhibitors. By varying the inhibitor concentration, the IC50 value for each compound was determined, and the Ki values were calculated.

The target of experiment [4] is T4, purified enzyme from Corynebacterium striatum A×20 (Corynebacterium striatum, UniProt Q8GGD4).
T4 construct: an enzyme may be isolated from cellular extracts obtained from wild-type bacterial strains; endogenous in cells; host or cells: Corynebacterium striatum Ax20 (DSM 14267), mechanically disrupted; crude extract or chromatographically purified enzyme
T4 sequence (Q8GGD4 2-400): as above
Type of experiment: biochemical. The following applies: for enzyme activity after incubation with serin-/cystein protease inhibitor: purified enzyme. Here is the method: Corynebacterium striatum A×20 was selected to isolate and purify the enzyme responsible for the cleavage of the precursor Nα-3-hydroxy-3-methyl-hexanoyl-L-glutamine. The strain was grown during 48 h in Mueller-Hinton broth amended with 0.01% Tween 80. A total volume of 2 L of culture was harvested by centrifugation. The pellet was washed in Buffer A (50 mM NaCl; 50 mM NaH2PO4/K2HPO4 buffer at pH 7) and this buffer was used throughout the whole purification procedure. The cells were disrupted mechanically by vortexing them with glass beads (425–600 μm, Sigma, St-Louis, USA) during 30 min at maximal speed. The crude cell lysate was then fractionated by precipitation with an increasing concentration of (NH4)2SO4. […] This enriched sample was dissolved in Buffer A and then sequentially passed over four chromatography columns: DEAE Sepharose CL-6B anion exchange resin (Pharmacia, Uppsala, Sweden; elution with a linear gradient from 0 to 800 mM KCI); Phenyl-Sepharose hydrophobic interaction resin (Pharmacia; elution with a linear gradient from 1000 mM to 0 mM of (NH4)2SO4; Mono Q strong anion exchange column on the FPLC system (Pharmacia; elution with a gradient from 0 to 800 mM KCl) and finally Mono P weak anion exchange column on the FPLC (elution with a gradient from 0–800 mM KCl in a 50 mM Bis-Tris buffer instead of Buffer A). […] Finally, the enzyme was subjected to LC-ESI-MS/MS analysis after tryptic digestion and to analysis of its N-terminal amino acid sequence.

Experiment [5] addresses T5, enzyme extracted from Corynebacterium striatum A×20 (AMRE, Nα-acyl-glutamine-aminoacylase) (Corynebacterium striatum, UniProt Q8GGD4).
T5 construct: an enzyme may be isolated from cellular extracts obtained from wild-type bacterial strains; endogenous in cells; host or cells: Corynebacterium striatum Ax20 (DSM 14267), mechanically disrupted; crude extract or chromatographically purified enzyme
As to the kind of experiment: Substrate specificity of the enzyme (capillary GC of released acid or alcohol). It is filed as biochemical. The settings on record: for Cleavage by enzyme: 500 ppm in Buffer A, 24 h incubation. Here is the method: To understand in detail the structural requirements of substrates, the enzyme extracted from Corynebacterium striatum A×20 was incubated with a wide variety of said compounds related to the originally isolated Nα-3-methyl-3-hydroxy-hexanoyl-L-glutamine present in sweat. Each compound was used at a concentration of 500 ppm in Buffer A, and analysis of released acid or alcohol was done by capillary GC after 24 h of incubation. First, different modifications at the N-terminus were tested.

Molecules are shown by their SMILES. Like-named read-outs stand apart in the source and are kept apart here. Where a SMILES comes first, the peptide text is derived from it.

T5 sequence (Q8GGD4 2-400): as above
T2 sequence (Q8GGD4 2-400): as above
T1 sequence (Q8GGD4 2-400): as above

As for `c1ccc(-c2ccccn2)nc1` [2,2′-bipyridyl], in experiment [1] (5 mM), the inhibition at 5000 µM was 65%. With `O=P(O)(O)CN(CP(=O)(O)O)CP(=O)(O)O` [Aminotri(methylene-phosphonic acid)], the “% inhibition of enzyme activity in living cells” value (from here on “% inhibition of enzyme activity”) in experiment [2] stood at 55.7%. In addition, in experiment [1] (5 mM), the “% inhibition of the isolated enzyme” value worked out at 76.6%. As for `NC(=O)CC[C@H](NC(=O)[C@@H](S)Cc1ccccc1)C(=O)O` [Compound 5a], the Ki in experiment [3] is 54 ± 1 nM.

On to `CC(C)C[C@H](S)C(=O)N[C@@H](CCC(N)=O)C(=O)O` [Compound 5b], for which the Ki in experiment [3] was 130 ± 10 nM. In the case of `CCCC[C@H](S)C(=O)N[C@@H](CCC(N)=O)C(=O)O` [Compound 5c], the Ki in experiment [3] is 410 ± 20 nM.

In the case of `NC(=O)CCC(CP(=O)(O)Cc1ccccc1)C(=O)O` (stereo not drawn) [Compound 8a], the Ki in experiment [3] was 50 ± 3 nM. Still for that read-out and setting: the figure for `CC(C)CP(=O)(O)CC(CCC(N)=O)C(=O)O` (stereo not drawn) [Compound 8b] is 58 ± 4 nM; for `CCCCP(=O)(O)CC(CCC(N)=O)C(=O)O` (stereo not drawn) [Compound 8c] it is 110 ± 10 nM. Consider `OC(CS)C(O)CS` (stereo not drawn) [Dithiothreitol, 2,3-dihydroxy-butane-1,4-dithiol], for which, in experiment [1] (0.5 mM), the inhibition at 500 µM is 98%. Besides, the inhibition at 5000 µM in experiment [1] (5 mM) was 100%. As to `O=C(O)CN(CCN(CC(=O)O)CC(=O)O)CC(=O)O` [EDTA], the “inhibition of the enzyme” value in experiment [4] is listed as “completely inhibited”. Consider `CCC(NCCNC(CC)C(=O)O)C(=O)O` (stereo not drawn) [Ethylen-diimino-dibutyric acid], for which the “% inhibition of enzyme activity” value in experiment [2] turned out to be 53.7%. The “% inhibition of the isolated enzyme” value in experiment [1] (5 mM) is recorded as 44.3%. In the same order, the values of `O=C(O)CNCCNCC(=O)O` [Ethylendiamine-2-2′-diacetic acid] are 58.3% and 100%. Take `c1ccc(CN(CCN(Cc2ccccn2)Cc2ccccn2)Cc2ccccn2)nc1` [N,N,N′,N′-tetrakis-(2-pyridylmethyl)-ethylendiamine]: the inhibition at 5000 µM in experiment [2] stood at 85.2%; in experiment [1] (5 mM) it was 87.9%. In the case of `O=S(=O)(F)Cc1ccccc1` [PMSF, Phenylmethylsulfonylfluoride], in experiment [4], the “enzyme activity after incubation with serin-/cystein protease inhibitor” value is “retained all its activity”.

`NCCc1ccc(S(=O)(=O)F)cc1` [Pefabloc SC, 4-(2-aminoethyl)-benzenesulfonylfluoride]: in experiment [4], the “enzyme activity after incubation with serin-/cystein protease inhibitor” value is “retained all its activity”. For the compound `O=C(O)c1cccc(C(=O)O)n1` [Pyridine-2,6dicarboxylic acid], the figures for the inhibition at 5000 µM in experiment [2] and in experiment [1] (5 mM) were 64.3% and 100%, respectively.

On to `[Cl-].[Cl-].[Zn+2]` [ZnCl2], for which the “reversal of EDTA / o-phenantrolin inhibition” value in experiment [4] (addition of 1 mM) was “could be reversed”. For `CCCCCCCCCCCC(=O)N[C@@H](CCCNC(=N)N)C(=O)O` [compound 8, Nα-Lauroyl-L-arginine], the Cleavage by enzyme entry in experiment [5] was “−”. On the same count and under the same terms, the entry for `CCCCCCCCCCCC(=O)N[C@@H](C)C(=O)O` [compound 9, N-lauroyl-L-alanine] is “+ (+ indicates cleavage < 10%)”; for `C[C@H](NC(=O)OCc1ccccc1)C(=O)O` [compound 10, Carbobenzyloxy-L-alanine] it is “+ (+ indicates cleavage < 10%)”; for `O=C(O)CC[C@H](NC(=O)OCc1ccccc1)C(=O)O` [compound 11, Carbobenzyloxy-L-glutamate] it is “−”. As to `O=C(O)C[C@H](NC(=O)OCc1ccccc1)C(=O)O` [compound 13, Carbobenzyloxy-L-aspartate], the Cleavage by enzyme entry in experiment [5] is “−”. On the same count and under the same terms, the result for `O=C(N[C@@H](CO)C(=O)O)OCc1ccccc1` [compound 14, Carbobenzyloxy-L-serine] reads “−”; that for `O=C(N[C@@H](Cc1ccc(O)cc1)C(=O)O)OCc1ccccc1` [compound 15, Carbobenzyloxy-L-tyrosine], “−”. Same read-out and setting: the result for `O=C(O)CNC(=O)OCc1ccccc1` [compound 16, Carbobenzyloxy-L-glycine] reads “−”; that for `O=C(N[C@@H](Cc1c[nH]cn1)C(=O)O)OCc1ccccc1` [compound 17, Carbobenzyloxy-L-histidine], “−”; that for `CC(C)C[C@H](NC(=O)OCc1ccccc1)C(=O)O` [compound 18, Carbobenzyloxy-L-leucine], “−”.

On to `NC(=O)CC[C@@H](NC(=O)OCc1ccccc1)C(=O)O` [compound 19, Carbobenzyloxy-D-glutamine], for which, in experiment [5], the “cleavage of substrate by enzyme (in words)” value (“cleavage of substrate” below) is “cannot cleave” and the Cleavage by enzyme result is “−”.

Regarding `COC(=O)[C@H](CCC(N)=O)NC(=O)OCc1ccccc1` [compound 20, Carbobenzyloxy-L-glutamine-O-Me], in experiment [5], the “cleavage of substrate” value is on record as “does not cleave” and the Cleavage by enzyme result is “−”. With `NC(=O)CC[C@H](NC(=O)OCc1ccccc1)C(=O)NCC(=O)O` [compound 21, Carbobenzyloxy-L-glutamine- Gly-OH] (HELM PEPTIDE1{[O=C(OCc1ccccc1)[*:2]].Q.G}$$$$V2.0), in experiment [5], the “cleavage of substrate” value was “does not cleave” and the Cleavage by enzyme entry was “−”. In the same order, the values of `O=C(CC[C@H](NOCc1ccccc1)C(=O)O)NCc1ccccc1` [compound 22, 4-benzylcarbamoyl-2-(S)-benzyloxyamino-butyric acid] are “cannot cleave” and “−”. Regarding `c1cnc2c(c1)ccc1cccnc12` [o-phenantrolin], the “% inhibition of enzyme activity” value in experiment [2] came out at 90.3%. Moreover, the “% inhibition of the isolated enzyme” value in experiment [1] (0.5 mM) and in experiment [1] (5 mM) was 100% throughout. The “inhibition of the enzyme” value in experiment [4] (1 mM) is listed as “completely inhibited”.
